SMILES strings stand for the structures. Where “and” joins values, the source holds several entries; their conditions need not be identical. Equal entries are not always repeated.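 Grown in 96-well plates, cells were treated for 48 hours with each compound at five concentrations. Insufficient inhibition: endpoint recorded as highest concentration tested. Here, GI50 denotes the concentration required for 50% inhibition of growth. Definition used: TGI = concentration required for complete inhibition of growth.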

Holding throughout (assay): NCI-60 cell line screen, 48 h
The test system of assay [1] is EKVX NSCLC.
For assay [2], the system named is NCI-H522 lung.
In assay [3] the test system is MDA-MB-231 breast.
In assay [4] the test system is SF-268 CNS.
Assay [5] has as its system M14 melanoma.
In assay [6] the test system is HOP-62 NSCLC.
The subject of assay [7] is OVCAR-5 ovarian.
Assay [8] has as its system RPMI-8226 leukemia.

As for `O=C(O)C[C@H](O)C[C@H](O)/C=C/c1c(C2CC2)nc2ccccc2c1-c1ccc(F)cc1`, the GI50 in assay [1] was 23.1 µM and 5.16 µM; in assay [2] it was 1.38 µM and 0.633 µM; in assay [3], 0.287 µM and 0.0564 µM; in assay [4], 0.659 µM and 0.381 µM; in assay [5], 5.34 µM and 4.38 µM; in assay [6] it was 15 µM and 6.22 µM. The GI50 in assay [7] is 52.6 µM and 7.32 µM; in assay [8], 25 µM and 10.4 µM. Also, the TGI in assay [1], in assay [4], in assay [5], in assay [6], in assay [7] and in assay [8] was more than 100 µM each time.
Take `CN(C)Cc1ccc(-c2cc3onc(-c4ccccc4)c3c(=O)n2C)cc1`: the TGI in assay [1] was more than 100 µM; in assay [2], 39.5 µM; in assay [3], more than 100 µM; in assay [4], more than 100 µM; in assay [5], 30.7 µM; in assay [6], 41.3 µM. For the same compound, the TGI is more than 100 µM in assay [7] and 54.9 µM in assay [8].
Turning to `C=CC(=O)N1CCC(c2ccc(C(N)=O)c(-c3ccc(Oc4ccccc4)cc3)n2)CC1`, the GI50 in assay [1] is 21.5 µM; in assay [2], 11.2 µM; in assay [3], 39 µM; in assay [4] it was 50.5 µM; in assay [5] it was 34.3 µM; in assay [6], 56.2 µM. Further, the GI50 in assay [7] is more than 100 µM; in assay [8] it was 20.4 µM. The TGI is more than 100 µM in assay [1]; 60.3 µM in assay [2]; more than 100 µM in assay [3]; more than 100 µM in assay [4]; more than 100 µM in assay [5]; more than 100 µM in assay [6]. Further, the TGI in assay [7] was more than 100 µM; in assay [8], 73.7 µM.
`OCCCCC#Cc1ccccc1C#Cc1ccc(O)cc1`: the GI50 in assay [1] is 17 µM; in assay [2] it was 13.8 µM; in assay [3] it was 7.55 µM; in assay [4], 16 µM; in assay [5], 17.8 µM; in assay [6], 21.9 µM. In addition, the GI50 in assay [7] was 16.5 µM; in assay [8], 19.1 µM. In addition, the TGI in assay [1] amounted to 37 µM; in assay [2], 28.8 µM; in assay [3] it was 21.4 µM; in assay [4], 41.7 µM; in assay [5] it was 36 µM; in assay [6] it was 38.1 µM. For the same compound, the values for the TGI in assay [7] and in assay [8] were 35.2 µM and 48.9 µM, respectively.
For the compound `O=C1NC(N/N=C\C(O)C(O)C(O)C(O)CO)=N/C1=C/c1ccccc1` (centres undefined), the GI50 in assay [1] is > 100 µM and 19.9 µM; in assay [2], 96.5 µM and 18.6 µM and > 100 µM; in assay [3], 51.7 µM and 15.4 µM and > 100 µM; in assay [4], > 100 µM and 15.2 µM; in assay [5] it was 52.6 µM and 15.4 µM and > 100 µM; in assay [6], > 100 µM and 19.4 µM. For the same compound, the GI50 in assay [7] is > 100 µM and 24.4 µM; in assay [8], 58.8 µM and 19.6 µM and > 100 µM. For the same compound, the TGI in assay [1] is > 100 µM and 51 µM; in assay [2] it was > 100 µM and 40.5 µM; in assay [3] it was > 100 µM and 33.4 µM; in assay [4], > 100 µM and 42.7 µM; in assay [5] it was > 100 µM and 31.6 µM; in assay [6], > 100 µM and 36.2 µM. The TGI is > 100 µM and 44.9 µM in assay [7]; > 100 µM and 45.2 µM in assay [8].
Regarding `CNC(=O)NCC1OC(n2cnc3c(NC(=O)Nc4ccccc4)ncnc32)C(O[Si](C)(C)C(C)(C)C)C1O[Si](C)(C)C(C)(C)C` (centres undefined), the GI50 in assay [1] is 3.7 µM; in assay [2] it was 2.39 µM; in assay [3] it was 2.61 µM; in assay [4] it was 3.58 µM; in assay [5], 4.33 µM; in assay [6], 4.98 µM. The GI50 in assay [7] was 5.24 µM; in assay [8], 3.27 µM. Besides, the TGI in assay [1] is 30.6 µM; in assay [2], 7.14 µM; in assay [3] it was 6.12 µM; in assay [4], 14 µM; in assay [5], 18.5 µM; in assay [6] it was 17.1 µM. Moreover, the values for the TGI in assay [7] and in assay [8] were 25.2 µM and more than 100 µM, respectively.
`O=[N+]([O-])c1cccc(/C=N/NC2=CS(=O)(=O)C=C2)c1`: the TGI in assay [1], in assay [2], in assay [3], in assay [4], in assay [5] and in assay [6] was more than 100 µM each time. The TGI in assay [7] and in assay [8] was more than 100 µM throughout.
Take `CO/N=C(\COc1ccc2c(=O)c3ccccc3oc2c1)c1ccccc1`: the GI50 in assay [1] was 20.9 µM; in assay [2], 33.4 µM; in assay [3], 25.2 µM; in assay [4] it was 33.2 µM; in assay [5], 73.5 µM; in assay [6] it was 26.8 µM. Further, the results for the GI50 in assay [7] and in assay [8] were 38.4 µM and more than 100 µM, respectively. Further, the TGI in assay [1] was 50.6 µM; in assay [2] it was more than 100 µM; in assay [3], 57.1 µM; in assay [4] it was more than 100 µM; in assay [5], more than 100 µM; in assay [6], 78.3 µM. Further, the TGI in assay [7] and in assay [8] was more than 100 µM in each case.
As to `COc1ccc(C(=O)Cn2c(C(=O)c3ccccc3)nc3ccccc32)cc1`, the GI50 is 7.21 µM in assay [1]; 2.16 µM in assay [2]; 7.38 µM in assay [3]; 4.18 µM in assay [4]; 2.93 µM in assay [5]; 6.57 µM in assay [6]. Moreover, the GI50 is more than 26.1 µM in assay [7] and 3.05 µM in assay [8]. Further, the TGI in assay [1] was more than 100 µM; in assay [2] it was more than 26.7 µM; in assay [3], more than 100 µM; in assay [4] it was more than 100 µM; in assay [5], more than 100 µM; in assay [6], more than 100 µM. Besides, the figures for the TGI in assay [7] and in assay [8] were more than 100 µM and more than 28.8 µM, respectively.
On to `C[C@H]1[C@H](C)N1CC(O)Cn1ccnc1[N+](=O)[O-]` (some centres undefined), for which the TGI in assay [1], in assay [2], in assay [3], in assay [4], in assay [5] and in assay [6] was more than 100 µM each time. Moreover, the TGI in assay [7] and in assay [8] was more than 100 µM throughout.

Values taken from PubChem BioAssay (NCI).
